# Measurements: PubChem BioAssay (NCI)
#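 1) Cells in 96-well plates. 2) Compound, 48 h, 5 concentrations. 3) Linear interpolation between surrounding doses. 4) Unreached endpoint = highest concentration. TGI marks complete inhibition of growth.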 *1 amine or outer side, *2 acyl side, *3 side chain or, on linkers, in order; H or OH if unused. Where a SMILES comes first, the peptide text is derived from it. Bridges are numbered along the chain shown (N, C = ends). [ ]: non-standard residue; d: D form. X59 = COc1c(N[*:1])cccc1C(=O)O[C@H](C(=O)[C@H](C)C(=O)[*:2])C(C)C; X58 = CC(C)C[C@H](C(=O)[*:2])C(C)C(=O)C1CCCN1[*:1]; NMeY = CN[C@@H](Cc1ccc(O)cc1)C(=O)O; Lac = C[C@H](O)C(=O)O
# What was measured:
# Experiment in all cases: DTP human tumour cell line panel, 48 h
# MDA-MB-231 breast = test system: MDA-MB-231 breast
# HS 578T breast = test system: HS 578T breast
# HCT-116 colon = test system: HCT-116 colon
# UO-31 renal = test system: UO-31 renal
# SF-539 CNS = test system: SF-539 CNS
# HT29 colon = test system: HT29 colon
# SF-268 CNS = test system: SF-268 CNS
# BT-549 breast = test system: BT-549 breast
# ACHN renal = test system: ACHN renal
# SK-MEL-2 melanoma = test system: SK-MEL-2 melanoma
# CAKI-1 renal = test system: CAKI-1 renal
# SK-OV-3 ovarian = test system: SK-OV-3 ovarian
# SN12C renal = test system: SN12C renal
# A498 renal = test system: A498 renal
SMILES,TGI (MDA-MB-231 breast) [µM],TGI (HS 578T breast) [µM],TGI (HCT-116 colon) [µM],TGI (UO-31 renal) [µM],TGI (SF-539 CNS) [µM],TGI (HT29 colon) [µM],TGI (SF-268 CNS) [µM],TGI (BT-549 breast) [µM],TGI (ACHN renal) [µM],TGI (SK-MEL-2 melanoma) [µM],TGI (CAKI-1 renal) [µM],TGI (SK-OV-3 ovarian) [µM],TGI (SN12C renal) [µM],TGI (A498 renal) [µM]
O=C1Nc2ccccc2/C1=N/N1C(=O)/C(=C/c2ccccc2S)N=C1c1ccccc1,> 100,> 100,> 100,> 100,> 100,> 100,> 100,> 100,> 100,> 100,> 100,> 100,> 100,> 100
CNC(=O)OCc1nc(N=[N+]=[N-])n(C)c1COC(=O)NC,> 100,> 100,> 100,> 10,> 100,> 100,> 100,> 10,> 100,80.6,61,–,> 100,> 100
O=C(c1ccc(Cl)c(Cl)c1)N(C(=O)N1CCN(c2ccccc2)CC1)S(=O)(=O)c1ccccc1,> 100,> 100,86.8,50.3,> 100,> 100,> 100,> 100,> 100,48.2,> 100,79.6,> 100,> 100
Nc1ncc(N)c(NCC2(CO)CC(CCc3ccccc3)C2)n1 (stereo unspecified),14.8,36.1,20.1,15,8.67,20.5,> 43,23.1,24.5,23,21.8,25.4,24.9,27.4
N#CCCN(CCCN(C(=O)Nc1ccc(NC(=O)N(CCCN(CCC#N)C(N)=O)c2ccccc2)cc1)c1ccccc1)C(N)=O,> 100,> 100,> 100,> 100,> 100,> 100,> 100,> 100,> 100,> 100,> 100,> 100,–,> 100
Nc1ncnc2c1ncn2[C@@H]1C[C@H](NO)[C@@H](O)[C@H]1O,> 100,> 100,> 100,> 100,> 100,–,> 100,> 100,> 100,> 100,–,> 100,> 100,> 100
CC(C)(C)OC(=O)NC(Cc1ccc(OCc2ccccc2)cn1)C(=O)O (stereo unspecified),> 100,> 100,> 100,> 100,> 100,> 100,> 100,> 100,> 100,–,> 100,–,> 100,> 100
CN1C(=O)C(C#N)C2C[C@@]1(C)Oc1ccccc12 (stereo partly specified),> 100,> 100,> 100,> 100,–,> 100,> 100,> 100,> 100,> 100,> 100,> 100,–,> 100
COc1ccc(C[C@H]2C(=O)O[C@H](C)[C@H](NC(=O)[C@@H](CC(C)C)C(C)C(=O)C3CCCN3C(=O)[C@H](C)O)C(=O)Nc3cccc(c3OC)C(=O)O[C@@H](C(C)C)C(=O)[C@H](C)C(=O)N[C@@H](CC(C)C)C(=O)N3CCC[C@H]3C(=O)N2C)cc1 (stereo partly specified) (H-[Lac][X58]T[X59]LP[NMeY](Me); ester 3-C),> 12.5,> 12.5,> 12.5,> 12.5,> 12.5,> 12.5,> 12.5,> 12.5,> 12.5,> 12.5,> 12.5,> 12.5,> 12.5,–
CC(C)(C)CN1[C@@H]2CCCC[C@H]2N(CC(C)(C)C)P1(=O)C(O)/C=C/c1ccccc1 (stereo partly specified),> 100,73.2,> 100,> 100,–,> 100,> 100,> 100,93.7,93.1,> 100,> 100,57.5,89.8
CCOC(=O)CNC(=O)CNC(=O)CNC(=O)CNNc1c(OCc2ccccc2)c(=O)c1=O,> 100,> 100,> 100,> 100,–,> 100,> 100,> 100,> 100,> 100,> 100,> 100,> 100,> 100
COCCNC1CCC(=O)c2[nH]c3ccccc3c21 (stereo unspecified),> 100,> 100,> 100,> 100,> 100,> 100,> 100,> 100,> 100,> 100,> 100,–,> 100,> 100
